Series [1] relates to A549. As to the kind of experiment: IC50 of compounds and E7010 against A549 cell line. It counts as cell-based. The text has this: (§1) In the present investigation, an attempt has been made, in view of the biological importance of both 2-anilino nicotinyl structure and 1,2,3-triazoles group. […] Introduction of triazole group on 2-anilino nicotinyl moiety resulted that there is enhancement of biological activity of representative compounds (1a, 1b, 1c, 1d, 1f, 1g, 1i, 1k, 6b and 6g) compare with E7010. Biological data of representative compounds has been provided in Table 1. • (Novel sulfonamides as potential, systemically active antitumor agents. Yoshino, H.; Ueda, N.; Niijima, J.; Sugumi, H.; Kotake, Y.; Koyanagi, N.; Yoshimatsu, K.; Asada, M.; Watanabe, T.; Nagasu, T. J. Med. Chem. 1992, 35, 2496-2497)

In series [2] the test system is MCF-7. As to the kind of experiment: IC50 of compounds and E7010 against MCF-7 cell line. It counts as cell-based.
Text: as §1

Series [3] relates to A549. To be noted: A549 cell line; E7010 comparison value (Chem MedChem 2012, 7, 680-693); cited from earlier work.
For series [4], the system named is MCF-7. Particulars: MCF-7 cell line; E7010 comparison value (Chem MedChem 2012, 7, 680-693); cited from earlier work.
Where [5] appears, read: Homo sapiens, A549, A549 cell line.
[6] abbreviates: Homo sapiens, MCF7, MCF-7 cell line.

SMILES strings stand for the structures. Read-outs that look alike come from different tables or passages of the source.

Consider `O=C(NCc1cn(Cc2cccc(Oc3ccccc3)c2)nn1)c1cccnc1Nc1ccc(Cl)cc1` [Compound 1c, 2-(4-Chlorophenylamino)-N-((1-(3-phenoxybenzyl)-1H-1,2,3-triazol-4-yl)methyl)nicotinamide], for which the melting point (usually the temperature, or range, at which the solid turns liquid) was in the range of 127 to 129 °C.
Consider `O=C(NCc1cn(Cc2cccc(Oc3ccccc3)c2)nn1)c1cccnc1Nc1ccc(Br)cc1` [Compound 1d, 2-(4-Bromophenylamino)-N-((1-(3-phenoxybenzyl)-1H-1,2,3-triazol-4-yl)methyl)nicotinamide], for which the melting point fell in the range of 160 to 162 °C. Moreover, in series [1] (A549 cell line), the IC50 (usually the concentration that gives 50% inhibition) was found to be 1900 nM. This compound also came in with a 50% inhibitory concentration (IC50) in series [1] (setting [5]) of 1250 to 3980 nM. Moreover, in series [2] (setting [6]), the IC50 was in the range of 740 to 2510 nM. For the same compound, the IC50 in series [2] (MCF-7 cell line) turned out to be 970 nM.
`O=C(NCc1cn(Cc2cccc(Oc3ccccc3)c2)nn1)c1cccnc1Nc1cccc(F)c1` [Compound 1f, 2-(3-Fluorophenylamino)-N-((1-(3-phenoxybenzyl)-1H-1,2,3-triazol-4-yl)methyl) nicotinamide] yielded a melting point of 130 to 132 °C. This compound displayed an IC50 in series [1] (A549 cell line) of 1900 nM. The IC50 in series [1] (setting [5]) is 1250 to 3980 nM.
Turning to `COc1cc(Cn2cc(CNC(=O)c3cccnc3Nc3ccc(F)cc3)nn2)cc(OC)c1` [Compound 6b, N-((1-(3,5-Dimethoxybenzyl)-1H-1,2,3-triazol-4-yl)methyl)-2-((4-fluorophenyl)amino) nicotinamide], the melting point is 140 to 142 °C. The compound further returned an IC50 in series [1] (A549 cell line) of 1250 nM. This compound also displayed an IC50 in series [1] (setting [5]) of 1250 to 3980 nM. The compound also had a 50% inhibitory concentration (IC50) in series [2] (setting [6]) of 740 to 2510 nM. Also, the IC50 in series [2] (MCF-7 cell line) was found to be 1000 nM.
Taken in the same sequence, the figures for `COc1cc(Cn2cc(CNC(=O)c3cccnc3Nc3ccc(OC)cc3OC)nn2)cc(OC)c1` [Compound 6g, N-((1-(3,5-Dimethoxybenzyl)-1H-1,2,3-triazol-4-yl)methyl)-2-((2,4-dimethoxyphenyl)amino)nicotinamide] were 147 to 149 °C, 1310 nM, 1250 to 3980 nM, 740 to 2510 nM and 1170 nM.
Take `COc1ccc(S(=O)(=O)Nc2cccnc2Nc2ccc(O)cc2)cc1` [Compound E7010]: the figures for the 50% inhibitory concentration (IC50) in series [3] and in series [4] were 4450 nM and 9060 nM, respectively.

(Values after patent US9309225B2, “N-((1-benzyl-1H-1,2,3-triazol-4-yl)methyl)arylamide compounds as potential anticancer agents and a process for the preparation thereof” (COUNCIL OF SCIENTIFIC & INDUSTRIAL RESEARCH, priority 2013, dated 2016).)
